# “And” between values parts separate entries of the source, which are not always exact repeats. Equal values may be shown once. Read-outs that look alike come from different tables or passages of the source.
# Key:
# [1] = test system: leaf-discs; assay: DMSO spray and dips, tolerance by leaf-discs
# Text: There was no surface sterilization pretreatment; (2) discs were placed on GB+GBV agar plates; (3) disc were sprayed using a Preval Atomizer with 20% DMSO or water (control); (4) some plates were allowed to dry overnight in the hood. […] Plates were covered with two fabric screens. […] Plates were covered with one fabric screen.
# (§1) There was no surface sterilization pretreatment; (2) discs were dipped several times in 20% DMSO, 8% DMSO or water (control). Discs were allowed to dry for a short time in the hood. […] Plates were covered with two fabric screens. […] Plates were covered with one fabric screen.
# [2] = test system: Brassica leaf-discs; assay: Phytohormone treatment, calli and root production from Brassica leaf-discs
# Protocol: (§2) • 1. Leaf-discs (2.7-cm in diameter) were cut from Brassica leaves (Leaf #2, leaf #3) or eggplant leaves (see above). • 2. […] The discs were placed in Incubator B (higher humidity, higher light). Plates were covered with two fabric screens. • 4.
# [3] = test system: eggplant leaf-discs; assay: Phytohormone treatment, root production from eggplant leaf-discs
# Protocol: as §2
# [4] = test system: leaf-discs
# Protocol: Protocol 1: Ethanol and sodium hypochlorite: The method comprised the following steps: (1) whole leaves (Leaf 2 or leaf 3) were excised from plants; (2) leaves were dipped in 500 ml of 70% EtOH for 10-20 sec; (3) leaves were immersed in 500 ml of 0.01%, 0.06% or 0.24% NaClO for varying periods of time (1-20 min) with and without agitation of the liquid; (4) leaves were washed three to four times in distilled water (500-ml) each; (5) leaves were patted dry with paper towels; and (6) discs are cut from these pretreated leaves.
# Protocol 2: Ethanol and sodium hypochlorite: The method comprised the following steps: (1) leaf-discs (2.5-cm in diameter) were cut from leaf 2 (11.5-cm long) or leaf 3 from a 6-wk-old plants; (2) Discs were dipped in 500 ml of 70% EtOH for 10-20 sec; (3) Discs were immersed in 500 ml of 0.01%, 0.06% or 0.24% NaClO for varying periods of time (1-20 min) with and without agitation of the liquid; (4) Discs were washed three to four times in distilled water (500-ml) each; (5) Discs were patted dry with paper towels; (6) Discs were placed on GB+GBV agar plates, covered with a mesh lid, sealed with parafilm, and incubated agar side up; (7) In some experiments, GB-GBV plates were initially incubated agar side down to encourage root growth into the media. […]
# [5] = test system: plant-derived fungi; assay: Surface sterilization of leaves/leaf-discs with EtOH and sodium hypochlorite, control of fungi
# Text: Plates were covered with two fabric screens. […] Plates were covered with one fabric screen.
# [6] = test system: plant-derived fungi; assay: DMSO/miconazole dips, control of fungi on leaf-discs; details: dipping of leaf-discs in 8% DMSO and 5 μg/ml miconazole
# Protocol: as §1, with “screen. In most experiments both incubators were used; […].” for “screen.”
compound,measurement,setting,value
"C[S+](C)[O-] [DMSO, dimethyl sulfoxide]",damage to leaf-discs,[1]; dipping into 8% DMSO,does not cause leaf-disc damage
same,damage to leaf-discs,[1]; dipping into 20% DMSO,does not cause leaf-disc damage
same,damage to leaf-discs,"[1]; direct spraying with 20% DMSO, two types of atomizers",causes extensive damage
"O=C(O)Cc1cccc2ccccc12 [NAA, Napthalene Acetic Acid]",Roots first detected,[2]; 0.1 mg/L NAA,5 days
same,% plates with calli,[2]; 1 mg/L NAA,67%
same,roots per site,"[2]; 1 mg/L NAA, day 4",1-3 roots per site and 1 roots per site and 1-2 roots per site
same,roots per site,"[2]; 1 mg/L NAA, day 5",1-3 roots per site and 1-2 roots per site
same,% plates with calli,[2]; 10 mg/L NAA,100%
same,Calli first day detected,"[2]; 10 mg/L NAA in GB + GBV, Incubator B",3 days
same,number of root sites per disc,"[2]; 10 mg/L NAA, day 4, discs 142B-1 to -3",1 sites
same,roots per site,"[2]; 10 mg/L NAA, day 5",2 per site and 1-3multiple per site and 1-3 per site
same,plates with roots,"[2]; NAA 0.1 mg/L, day 5",⅔
same,plates with roots,"[2]; NAA 1 mg/L, by day 4",all three
same,plates with roots,"[2]; NAA 10 mg/L, by day 4",all three
same,root sites and roots per site detected,"[2]; NAA 0.1, 1.0 and 10 mg/L",Multiple root sites and multiple roots per site
same,effect on production of roots from Brassica leaf-discs,"[2]; NAA 0.1, 1.0 and 10 mg/L in GB+GBV",enhanced and accelerated the production of roots
same,production of roots from eggplant leaf-discs,"[3]; NAA 0.1, 1.0 and 10 mg/L, within 5 d",did not produce of roots
"[Na+].[O-]Cl [NaClO, sodium hypochlorite]",damage to intact leaves or leaf-discs,[4],No damage was evident
same,time for which appearance of fungi is prevented,"[5]; prewashing intact leaves with 70% EtOH and 0.24% NaClO, then cutting discs",19 days
same,slowing of first appearance of fungi on agar plates,[5]; prewashing leaves or leaf-discs with 70% EtOH and 0.01% NaClO,1 to 2 days
same,slowing of first appearance of fungi on agar plates,[5]; prewashing with 70% EtOH and 0.06% NaClO,1 to 2 days
Clc1ccc(COC(Cn2ccnc2)c2ccc(Cl)cc2Cl)c(Cl)c1 (stereo not drawn) [miconazole],slowing of growth of plant-derived fungi,[6],10 to 12 days
Indole butyric acid [IBA],Calli first day detected,[2],4 days and 5 days
same,Roots first detected,[2],5 days
same,time in which leaf-discs produced roots,[2],5 to 6 days
same,detection of roots,[2]; 1.0 mg/L IBA,occasionally detected
same,number of root sites per disc,"[2]; 2.5 mg/L IBA, day 5",1 site
same,roots per site,"[2]; 2.5 mg/L IBA, day 5",1 root
same,% plates with calli,[2]; 5 mg/L IBA,67% and 100%
same,Roots first detected,[2]; 5 mg/L IBA,5 days
same,number of root sites per disc,"[2]; 5 mg/L IBA, day 5",2 sites
same,roots per site,"[2]; 5 mg/L IBA, day 5",3-4 roots per site
same,% plates with calli,[2]; 7.5 mg/L IBA,100%
same,Roots first detected,[2]; 7.5 mg/L IBA,6 days
same,% plates with calli,[2]; 10 mg/L IBA,100%
same,Roots first detected,[2]; 10 mg/L IBA,5 days
same,roots per site,"[2]; 10 mg/L IBA, day 5",1-4 roots per site and 1 root per site roots per site
same,number of root sites per disc,"[2]; 10 mg/L IBA, day 6",132B-2 10 sites and 132B-3 15 sites
same,roots total per disc,"[2]; 10 mg/L IBA, day 6, disc 132B-1",> 6d 132B-1 over 41 roots total
same,% plates with calli,[2]; […],100%
same,discs that formed roots,[3],one
same,time after which roots formed,[3],10 days

# Reference: patent US12245576B2, “Method for genetic manipulation of sap-feeding insects” (The Regents of the University of California, priority 2018, dated 2025)
